# Assay results taken from PubChem BioAssay (NCI).
#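 48-hour exposure; five concentrations; linearly interpolated endpoints. Here, GI50 denotes the concentration required for 50% inhibition of growth. TGI: total growth inhibition.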
# How the values were obtained:
# Assay in all cases: NCI tumour cell line growth inhibition, 48 h
# [1] = tested on: TK-10 renal
# [2] = tested on: A498 renal
# [3] = tested on: MOLT-4 leukemia
# [4] = tested on: SNB-19 CNS
# [5] = tested on: SK-MEL-5 melanoma
# [6] = tested on: SK-MEL-28 melanoma
# [7] = tested on: HS 578T breast
# [8] = tested on: SK-OV-3 ovarian
# [9] = tested on: HOP-92 NSCLC
# [10] = tested on: NCI-H23 lung
# [11] = tested on: T-47D breast
# [12] = tested on: PC-3 prostate
# [13] = tested on: COLO 205 colon
# [14] = tested on: SK-MEL-2 melanoma
# [15] = tested on: OVCAR-4 ovarian
# [16] = tested on: U251 CNS
# [17] = tested on: K-562 leukemia
# [18] = tested on: BT-549 breast
# [19] = tested on: LOX IMVI melanoma
# [20] = tested on: NCI-H522 lung
# [21] = tested on: UO-31 renal
# [22] = tested on: HT29 colon
# [23] = tested on: RXF 393 renal
# [24] = tested on: A549 NSCLC
# [25] = tested on: NCI-H460 lung
# [26] = tested on: CAKI-1 renal
# [27] = tested on: SF-295 CNS
# [28] = tested on: HCC-2998 colon
# [29] = tested on: CCRF-CEM leukemia
# [30] = tested on: OVCAR-3 ovarian
# [31] = tested on: HL-60(TB) leukemia
# [32] = tested on: NCI-H226 lung
# [33] = tested on: IGROV1 ovarian
# [34] = tested on: MCF7 breast
# [35] = tested on: OVCAR-8 ovarian
# [36] = tested on: SNB-75 CNS
# [37] = tested on: SN12C renal
# [38] = tested on: HCT-116 colon
# [39] = tested on: KM12 colon
# [40] = tested on: UACC-257 melanoma
# [41] = tested on: ACHN renal
# [42] = tested on: SF-539 CNS
# [43] = tested on: M14 melanoma
# [44] = tested on: HOP-62 NSCLC
# [45] = tested on: HCT-15 colon
# [46] = tested on: DU-145 prostate
# [47] = tested on: 786-0 renal
# [48] = tested on: SR leukemia
# [49] = tested on: RPMI-8226 leukemia
# [50] = tested on: EKVX NSCLC
# [51] = tested on: SW-620 colon
# [52] = tested on: SF-268 CNS
# [53] = tested on: UACC-62 melanoma
# [54] = tested on: MALME-3M melanoma
# [55] = tested on: MDA-MB-435
# [56] = tested on: MDA-MB-231 breast
# [57] = tested on: OVCAR-5 ovarian
structure (smiles),measurement,setting,value
COc1ccc(N=Nc2ccc(O)c(=O)cc2)cc1,GI50,[1],5.8 µM
same,TGI,[1],> 100 µM
same,GI50,[2],24.1 µM
same,TGI,[2],> 100 µM
same,GI50,[3],3.69 µM
same,TGI,[3],> 100 µM
same,GI50,[4],2920 nM
same,TGI,[4],51.6 µM
same,GI50,[5],3.34 µM
same,TGI,[5],16.2 µM
same,GI50,[6],3.06 µM
same,TGI,[6],31.6 µM
same,GI50,[7],4.41 µM
same,TGI,[7],> 100 µM
same,GI50,[8],4.58 µM
same,TGI,[8],> 100 µM
same,GI50,[9],2660 nM
same,TGI,[9],> 100 µM
same,GI50,[10],3.02 µM
same,TGI,[10],> 100 µM
same,GI50,[11],2640 nM
same,TGI,[11],> 100 µM
same,GI50,[12],4.82 µM
same,TGI,[12],> 100 µM
same,GI50,[13],7.07 µM
same,TGI,[13],> 100 µM
same,GI50,[14],5.01 µM
same,TGI,[14],41.1 µM
same,GI50,[15],5.05 µM
same,TGI,[15],> 100 µM
same,GI50,[16],3.2 µM
same,TGI,[16],> 100 µM
same,GI50,[17],3.69 µM
same,TGI,[17],> 100 µM
same,GI50,[18],2030 nM
same,TGI,[18],11.6 µM
same,GI50,[19],2440 nM
same,TGI,[19],27 µM
same,GI50,[20],2880 nM
same,TGI,[20],13.4 µM
same,GI50,[21],2910 nM
same,TGI,[21],> 100 µM
same,GI50,[22],4.83 µM
same,TGI,[22],49.7 µM
same,GI50,[23],3.71 µM
same,TGI,[23],> 100 µM
same,GI50,[24],3.02 µM
same,TGI,[24],> 100 µM
same,GI50,[25],1790 nM
same,TGI,[25],18.9 µM
same,GI50,[26],3.77 µM
same,TGI,[26],> 100 µM
same,GI50,[27],3.79 µM
same,TGI,[27],> 100 µM
same,GI50,[28],4.04 µM
same,TGI,[28],> 100 µM
same,GI50,[29],2180 nM
same,TGI,[29],9.94 µM
same,GI50,[30],3.64 µM
same,TGI,[30],> 100 µM
same,GI50,[31],3.55 µM
same,TGI,[31],> 100 µM
same,GI50,[32],3.73 µM
same,TGI,[32],> 100 µM
same,GI50,[33],3.86 µM
same,TGI,[33],> 100 µM
same,GI50,[34],3.4 µM
same,TGI,[34],> 100 µM
same,GI50,[35],2880 nM
same,TGI,[35],> 100 µM
same,GI50,[36],3.43 µM
same,TGI,[36],> 100 µM
same,GI50,[37],2820 nM
same,TGI,[37],> 100 µM
same,GI50,[38],2580 nM
same,TGI,[38],15.4 µM
same,GI50,[39],3.66 µM
same,TGI,[39],> 100 µM
same,GI50,[40],3.12 µM
same,TGI,[40],> 100 µM
same,GI50,[41],3.37 µM
same,TGI,[41],> 100 µM
same,GI50,[42],3.16 µM
same,TGI,[42],11.5 µM
same,GI50,[43],2220 nM
same,TGI,[43],7.42 µM
same,GI50,[44],4.19 µM
same,TGI,[44],41.8 µM
same,GI50,[45],2550 nM
same,TGI,[45],> 100 µM
same,GI50,[46],4.07 µM
same,TGI,[46],> 100 µM
same,GI50,[47],3.07 µM
same,TGI,[47],> 100 µM
same,GI50,[48],3.79 µM
same,TGI,[48],> 100 µM
same,GI50,[49],2680 nM
same,TGI,[49],43.7 µM
same,GI50,[50],4.3 µM
same,TGI,[50],> 100 µM
same,GI50,[51],4.08 µM
same,TGI,[51],> 100 µM
same,GI50,[52],3.62 µM
same,TGI,[52],> 100 µM
same,GI50,[53],2110 nM
same,TGI,[53],5.12 µM
same,GI50,[54],2860 nM
same,TGI,[54],14.2 µM
same,GI50,[55],4.02 µM
same,TGI,[55],> 100 µM
same,GI50,[56],4.62 µM
same,TGI,[56],> 100 µM
same,GI50,[57],5.89 µM
same,TGI,[57],> 100 µM
